Experimental data as given in patent US20200377477A1, “DEGRADERS OF EGFR AND METHODS OF USE THEREOF” (DANA-FARBER CANCER INSTITUTE, INC., priority 2018, published 2020).
Where two headings read alike, the source gives them in different places.

Key:
[1] = target: T1, EGFR T790M/L858R Ba/F3 cell line (Homo sapiens, UniProt P00533, T790M/L858R, cells depend on it); experiment: Ba/F3 cell proliferation (MTS assay), EGFR T790M/L858R; type: cell-based, murine
T1 construct: The constructs were shuttled into the retroviral vector JP1540 using the BD Creator™ System (BD Biosciences)
Procedure: The EGFR mutant L858R, Del E746_A750, L858R/T790M, DelE746_A750/T790M, L858R/T790M/C797S and Del/T790M/C797S Ba/F3 cells were previously described (Zhou e al., Nature 462, (2009), 1070-1074). All cell lines were maintained in RPMI 1640 (Cellgro; Mediatech Inc., Hemdon, Calif.) supplemented with 10% FBS 100 units/mL penicillin, 100 units/mL streptomycin, and 2 mM glutamine. L858R cells were maintained in ACL-4 media (Invitrogen, Carlsbad, Calif.) supplemented with 5% FBS, 100 units/mL penicillin, 100 units/mL streptonycin, and 2 mM glutamine. The EGFR I941R mutation was introduced via site directed mutagenesis using the Quick Change Site-Directed Mutagenesis kit (Stratagene; La Jolla, Calif.) according to the manufacturer's instructions. All constructs were confirmed by DNA sequencing. The constructs were shuttled into the retroviral vector JP1540 using the BD Creator™ System (BD Biosciences). Ba/F3 cells were infected with retrovirus and according to standard protocols, as described previously (Zhou 2009). Stable clones were obtained by selection in puromycin (2 μg/ml).
Growth and inhibition of growth was assessed by MTS assay and was performed according to previously established methods (Zhou 2009). The MTS assay is a colorimetric method for determining the number of viable cells that is based on the bioreduction of MTS by cells to a formazan product that is soluble in cell culture medium and can be detected spectrophotometrically. […] All experimental points were set up in six wells and all experiments were repeated at least three times. […] The curves were fitted using a non-linear regression model with a sigmoidal dose response.

[2] = target: T2, recombinant EGFR T790M/L858R kinase (Homo sapiens, UniProt P00533, L858R/T790M); experiment: HTRF-based EGFR biochemical assay
T2 construct: Constructs spanning residues 696-1022 of the human EGFR; GST (cleaved yes); made in house; host or cells: Sf9 insect cells
Procedure: Constructs spanning residues 696-1022 of the human EGFR (including wild type and L858R, L858R/T790M, T790M, and T790M/V948R mutant sequences) were prepared in a GST-fusion format using the pTriEX system (Novagen) for expression in Sf9 insect cells essentially as described (Yun et al., PNAS 105, 2070-2075 (2008); Yun et al., Cancer Cell 11, 217-227 (2007)). EGFR kinase proteins were purified by glutathione-affinity chromatography followed by size-exclusion chromatography after cleavage with TEV or thrombin to remove the GST fusion partner following established procedures. (Yun 2008; Yun 2007).
EGFR biochemical assays were carried out using a homogeneous time-resolved fluorescence (HTRF) assay as described previously. The reaction mixtures contained 1 μM biotin-Lck-peptide substrate, wild type or mutant EGFR enzyme in reaction buffer (50 mM HEPES pH 7. 1, 10 mM MgCl2, 0.01% BSA, 1 mM TCEP and 0.1 mM Na3VO4) at a final volume of 10 μL. Enzyme concentrations were adjusted to accommodate varying kinase activity and ATP concentrations (0.2-0.4 nM L858R/T790M; or 2-4 nM L858R, or 2-4 nM T790M, or nM WT). All reactions were carried out at room temperature in white ProxiPlate™ 384-well Plus plates (PerkinElmer) and were quenched with 5 μL of 0.2 M EDTA at 60 min. Five μL per well of the detection reagent containing 2.5 ng PT66K (Cis-bio) and 0.05 μg SAXL (Prozyme) were added, and the plates were then incubated at room temperature for 1 hour and read with an EnVision plate reader.

[3] = absence of cetuximab, read-out: Ba/F3 cellular activity (EC50) T790M/L858R
[4] = read-out: Ba/F3 cellular activity (EC50) T790M/L858R + Cetuximab, presence of 1 μg/mL cetuximab

T2 sequence (P00533 696-1022 T790M/L858R): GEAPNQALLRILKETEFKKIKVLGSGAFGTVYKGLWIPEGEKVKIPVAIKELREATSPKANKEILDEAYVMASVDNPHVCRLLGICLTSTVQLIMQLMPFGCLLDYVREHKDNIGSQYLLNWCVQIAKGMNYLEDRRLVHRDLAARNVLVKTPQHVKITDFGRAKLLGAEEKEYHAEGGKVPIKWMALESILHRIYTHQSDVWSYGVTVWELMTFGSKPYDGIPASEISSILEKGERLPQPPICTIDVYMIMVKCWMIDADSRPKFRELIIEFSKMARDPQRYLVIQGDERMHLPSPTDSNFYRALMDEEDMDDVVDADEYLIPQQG
T1 sequence (P00533 whole entry T790M/L858R): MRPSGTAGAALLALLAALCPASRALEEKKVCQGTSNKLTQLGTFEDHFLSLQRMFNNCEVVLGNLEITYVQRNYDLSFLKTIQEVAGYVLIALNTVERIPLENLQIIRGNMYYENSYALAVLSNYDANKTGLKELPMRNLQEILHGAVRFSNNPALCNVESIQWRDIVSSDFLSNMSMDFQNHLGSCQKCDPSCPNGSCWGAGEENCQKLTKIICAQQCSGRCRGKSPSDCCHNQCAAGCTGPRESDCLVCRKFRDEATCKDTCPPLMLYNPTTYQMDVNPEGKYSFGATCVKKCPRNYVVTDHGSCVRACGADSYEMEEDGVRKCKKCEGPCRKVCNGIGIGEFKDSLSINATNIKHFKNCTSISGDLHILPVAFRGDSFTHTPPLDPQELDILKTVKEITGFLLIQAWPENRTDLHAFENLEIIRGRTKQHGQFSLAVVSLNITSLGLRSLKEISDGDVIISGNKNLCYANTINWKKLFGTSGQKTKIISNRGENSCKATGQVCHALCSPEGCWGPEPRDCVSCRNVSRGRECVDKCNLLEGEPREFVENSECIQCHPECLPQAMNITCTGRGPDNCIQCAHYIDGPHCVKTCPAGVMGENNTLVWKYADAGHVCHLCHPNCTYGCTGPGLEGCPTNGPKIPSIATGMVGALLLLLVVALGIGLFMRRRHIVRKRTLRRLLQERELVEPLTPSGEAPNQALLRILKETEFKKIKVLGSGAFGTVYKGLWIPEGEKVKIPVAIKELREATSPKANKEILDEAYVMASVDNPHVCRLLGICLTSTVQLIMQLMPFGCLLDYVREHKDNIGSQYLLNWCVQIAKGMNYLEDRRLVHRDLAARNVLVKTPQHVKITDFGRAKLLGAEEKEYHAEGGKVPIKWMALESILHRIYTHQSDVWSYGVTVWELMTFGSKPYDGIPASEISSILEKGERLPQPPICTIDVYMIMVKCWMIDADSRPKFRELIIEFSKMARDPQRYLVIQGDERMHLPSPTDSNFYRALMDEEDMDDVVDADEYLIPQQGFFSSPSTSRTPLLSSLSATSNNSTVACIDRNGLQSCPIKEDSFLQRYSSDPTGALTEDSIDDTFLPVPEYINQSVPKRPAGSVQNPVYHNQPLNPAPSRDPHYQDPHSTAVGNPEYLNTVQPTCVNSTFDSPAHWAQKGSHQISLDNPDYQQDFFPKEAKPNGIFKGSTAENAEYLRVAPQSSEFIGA

Row | SMILES | EC50 [1, 3] | EC50 [1, 4] | IC50 [2]
1 | C=CC(=O)Nc1ccc2c(c1)N(Cc1ccccc1)C(=O)c1cc(-c3ccc(N4CCNCC4)cc3)ccc1N2 [I-3, N-(10-Benzyl-11-oxo-2-(4-(piperazin-1-yl)phenyl)-10,11-dihydro-5H-dibenzo[b,e][1,4]diazepin-8-yl)acrylamide] | ≥ 750 nM | ≥ 750 nM | ≥ 750 nM
2 | C=CC(=O)Nc1ccc2c(c1)N(Cc1ccccc1)C(=O)c1cc(-c3ccc4[nH]ccc4c3)ccc1N2 [I-1] | ≥ 750 nM | 500 to 750 nM | ≥ 750 nM
3 | O=C(CCl)Nc1ccc2c(c1)N(Cc1ccccc1)C(=O)c1cc(-c3ccc4[nH]ccc4c3)ccc1N2 [I-2] | < 250 nM | < 250 nM | ≥ 750 nM
4 | O=C1c2cc(Br)ccc2Nc2ccc(F)cc2N1Cc1ccccc1 [I-a, 10-Benzyl-2-bromo-8-fluoro-5,10-dihydro-11H-dibenzo[b,e][1,4]diazepin-11-one] | ≥ 750 nM | 250 to 500 nM | –
